Laboratory results: PubChem BioAssay AID232 (DTP/NCI, 2004)
Values joined by “and” are separate entries in the source; they are usually repeats but may differ in a detail not shown here. Identical values can stand only once. Inconclusive results and toxic doses are left out. The calls were made as follows: active = survival T/C of 150% or more; inactive = T/C below 125% in these data.

System: Gardner 6C3HED lymphosarcoma ip, C3AKF1 mice, survival T/C
Test: NCI In Vivo Anticancer Drug Screen. Data for tumor model Lymphosarcoma Gardner 6C3HED (intraperitoneal) in C3AKF1 (CHKRF1) mice
Conditions: endpoint: survival time, mean or median, schedule: Q01DX010 (ip), vehicle: saline, higher = longer survival
Protocol: The antitumor activity of compounds was measured in mice bearing transplantable tumors. Survival or tumor size were measured and the results are expressed as the measurement made in the treated group (T) divided by the measurement made in the vehicle treated control group (C). The tumor model used in this assay is Lymphosarcoma Gardner 6C3HED (intraperitoneal) in C3AKF1 (CHKRF1) mice

Measured: T/C

N#CCSc1ncnc2nc[nH]c12
inactive: dose: 15.0 mg/kg/injection 100 % of control and 111 % of control | dose: 30.0 mg/kg/injection 100 % of control | dose: 60.0 mg/kg/injection 95 % of control and 114 % of control | dose: 120.0 mg/kg/injection 92 % of control and 95 % of control

O=c1cnn(C2OC(CO)C(O)C2O)c(=O)[nH]1 (configuration not stated)
inactive: dose: 200.0 mg/kg/injection 105 % of control and 115 % of control | dose: 400.0 mg/kg/injection 115 % of control | dose: 800.0 mg/kg/injection 110 % of control and 120 % of control | dose: 1600.0 mg/kg/injection 95 % of control

O=C1C(NC(=O)C2CCCCC2)=C(N2CC2)C(=O)C(NC(=O)C2CCCCC2)=C1N1CC1
inactive: dose: 25.0 mg/kg/injection 92 % of control | dose: 50.0 mg/kg/injection 92 % of control

CS(=O)(=O)OCCCCOS(C)(=O)=O
inactive: dose: 1.56 mg/kg/injection 100 % of control | dose: 3.13 mg/kg/injection 100 % of control and 104 % of control

C1CN1c1nc(N2CC2)nc(N2CC2)n1
inactive: dose: 0.13 mg/kg/injection 100 % of control and 105 % of control | dose: 0.25 mg/kg/injection 110 % of control and 115 % of control | dose: 0.5 mg/kg/injection 120 % of control | dose: 1.0 mg/kg/injection 95 % of control | dose: 1.5 mg/kg/injection 110 % of control
